Assay results taken from patent US8609836B2, “4-aryl-2-anilino-pyrimidines” (Janssen Pharmaceutica NV, priority 2008, dated 2013).

What was measured:
GSK3β (h) = GSK3β (h) (Homo sapiens, UniProt P49841); test: GSK-3β human kinase inhibition, SPA; assay type: biochemical; settings: read-out: GSK3b pIC50 (converted)
How it was run: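 Scintillation proximity assay: GSK3β (1 μg/ml) with 1 μM biotinylated peptide, 1 μM ATP plus [γ-33P]ATP in Tris pH 7.4, MgCl2, DTT. 60 min at room temperature, stopped with EDTA and streptavidin PVT beads; phosphorylation read by Leadseeker imaging.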

CDK4/CyclinD1 (h) = CDK4/CyclinD1 (h) (Homo sapiens, UniProt P11802); test: CDK4/CyclinD1 human kinase inhibition, SPA with GST-pRb substrate; assay type: biochemical; settings: read-out: CDK4 pIC50 (converted)
Protocol: The in vitro inhibition of a panel of kinases was assessed using either the scintillation proximity assay (SPA) as described by Cook, N. D. et al., Advances in Experimental Medicine and Biology (1991), 36; p. 525-528.
In the SPA technology the activity of the kinase of interest is measured using an appropriate biotinylated substrate that is incubated with the aforementioned kinase protein in the presence of (^33P) radiolabeled ATP. (^33P) Phosphorylation of the substrate is subsequently measured through binding of the phosphorylated substrate to streptavidine coated beads that are based on the scintillant poly(vinyl toluene) (PVT-Beads). The scintillation intensity is detected by imaging on Leadseeker.
All kinases are pre-diluted to a 10× working concentration prior to addition into the assay. The composition of the dilution buffer for each kinase is detailed below.
In a final reaction volume of 30 μl, CDK4/CyclinD1 (h) (2.5 μg/ml) is incubated with 50 mM Hepes pH 7.5, 8 mM NaF, 20 mM MgCl2, 1 mM DTT, 40 μg/ml of substrate GST-pRb, 2 nM [γ-^33P-ATP] (6.0 μCi/ml). After incubation of 60 minutes at room temperature, the reaction is stopped by addition of 40 μL of stop solution containing 8.7 mM EDTA, 0.17% Triton X-100, 25 mg/ml Glutathion SPA Beads (GE-healthcare). The plate is centrifuged and read for Scintillation topcount analyzer.

PLK1 T210D (h) = PLK1 T210D (h) (Homo sapiens, UniProt P53350, T210D); test: PLK1 human kinase inhibition, SPA; assay type: biochemical; settings: read-out: PLK1 pIC50 (converted)
How it was run: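 Radiometric SPA with PLK1 T210D (0.125 ng/ml) in 50 mM Hepes pH 8.0, 2 mM MnCl2, 1 mM DTT, 2 μM biotinylated peptide, 0.1 μM ATP plus 2 nM [γ-33P]ATP. 40 min at room temperature, EDTA stop. Phosphorylated substrate captured on streptavidin PVT beads, scintillation imaged.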

PLK2 (h) = PLK2 (h) (Homo sapiens, UniProt Q9NYY3); test: PLK2 human kinase inhibition, SPA; assay type: biochemical; settings: read-out: PLK2 pIC50 (converted)
How it was run: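 SPA read on Leadseeker: PLK2 (30 μg/ml) with 2 μM biotinylated peptide, 0.1 μM ATP plus 2 nM [γ-33P]ATP in 50 mM Hepes pH 8.0, 2 mM MnCl2, 1 mM DTT. Reaction ran 20 min at room temperature, then EDTA stop and streptavidin PVT beads.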

PLK3 (h) = PLK3 (h) (Homo sapiens, UniProt Q9H4B4); test: PLK3 human kinase inhibition, SPA; assay type: biochemical; settings: read-out: PLK3 pIC50 (converted)
How it was run: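 SPA: PLK3 (h) at 30 μg/ml with 2 μM biotinylated peptide, 0.1 μM ATP plus 2 nM [γ-33P]ATP in 50 mM Hepes pH 8.0, 2 mM MnCl2 and 1 mM DTT. Incubated 20 min at room temperature, then stopped with EDTA and streptavidin PVT beads. Scintillation imaged on Leadseeker.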

HCT-116 = test: Cellular proliferation assay (Alamar blue), HCT-116; assay type: cell-based; settings: Homo sapiens, 10% FCS, 72 hours with compound, Alamar blue 4 h
How it was run: (§1)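 Proliferation in 10% FCS over a 72 h compound treatment, read as viable cell number by Alamar blue fluorescence and calculated against untreated control cells. Dye time varied by line: 6 h U87-MG, 4 h HCT-116, 24 h A2780 and MDA-MB-231.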

H1299 = test: Cellular proliferation assay (Alamar blue), H1299; assay type: cell-based; settings: Homo sapiens, NCI-H1299; 10% FCS; 72 hours with compound; Alamar blue 4 h
How it was run: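 This proliferation assay on NCI-H1299 cells used an initial 24-hour compound-free incubation after seeding, followed by 72 hours of compound treatment with 10% FCS serum at 37° C. and 5% (v/v) CO2. Viable cells were quantified by a 4 h Alamar blue incubation and fluorescent plate reading at 544 nm/590 nm, and effects were expressed relative to control cells.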

U87-MG = test: Cellular proliferation assay (Alamar blue), U87-MG; assay type: cell-based; settings: Homo sapiens, U-87 MG; 10% FCS; 72 hours with compound; Alamar blue 6 h; read-out: U87-MG (cellular proliferation assay, Table 4) (converted)
How it was run: as §1

A2780 = test: Cellular proliferation assay (Alamar blue), A2780; assay type: cell-based; settings: Homo sapiens, 10% FCS, 72 hours with compound, Alamar blue 24 h, read-out: A2780 (cellular proliferation assay, Table 4) (converted)
How it was run: as §1

MDA-MB-231 = test: Cellular proliferation assay (Alamar blue), MDA-MB-231; assay type: cell-based; settings: Homo sapiens, 10% FCS, 72 hours with compound, Alamar blue 24 h, read-out: MDA/MB231 (cellular proliferation assay, Table 4) (converted)
How it was run: as §1

Sequence of PLK1 T210D (h) (P53350 whole entry T210D): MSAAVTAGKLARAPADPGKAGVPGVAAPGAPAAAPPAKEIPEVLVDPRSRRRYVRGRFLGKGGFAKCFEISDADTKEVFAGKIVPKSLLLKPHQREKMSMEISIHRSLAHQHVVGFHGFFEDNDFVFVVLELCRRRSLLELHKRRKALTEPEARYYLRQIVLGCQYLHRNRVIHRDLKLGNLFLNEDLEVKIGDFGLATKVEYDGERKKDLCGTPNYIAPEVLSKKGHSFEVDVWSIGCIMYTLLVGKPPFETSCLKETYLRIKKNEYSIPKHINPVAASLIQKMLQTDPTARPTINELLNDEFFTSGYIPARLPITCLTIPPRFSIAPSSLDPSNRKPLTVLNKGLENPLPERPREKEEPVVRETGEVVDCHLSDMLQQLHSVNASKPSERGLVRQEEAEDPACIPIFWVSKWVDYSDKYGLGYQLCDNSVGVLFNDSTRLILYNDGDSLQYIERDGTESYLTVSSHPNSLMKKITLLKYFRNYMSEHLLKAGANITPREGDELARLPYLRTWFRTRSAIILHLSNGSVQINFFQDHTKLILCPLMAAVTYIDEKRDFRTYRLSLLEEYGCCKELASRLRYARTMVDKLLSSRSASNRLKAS
Sequence of CDK4/CyclinD1 (h) (P11802 whole entry): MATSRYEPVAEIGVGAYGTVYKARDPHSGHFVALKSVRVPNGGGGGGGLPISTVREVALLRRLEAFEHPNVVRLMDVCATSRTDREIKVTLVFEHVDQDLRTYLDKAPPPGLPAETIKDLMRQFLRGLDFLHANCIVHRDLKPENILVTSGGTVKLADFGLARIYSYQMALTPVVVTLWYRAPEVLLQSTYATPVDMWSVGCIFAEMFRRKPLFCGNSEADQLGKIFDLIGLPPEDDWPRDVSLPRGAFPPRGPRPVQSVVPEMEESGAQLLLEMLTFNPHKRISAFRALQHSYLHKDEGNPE
Sequence of CDK4/CyclinD1 (h) (P24385 whole entry partner): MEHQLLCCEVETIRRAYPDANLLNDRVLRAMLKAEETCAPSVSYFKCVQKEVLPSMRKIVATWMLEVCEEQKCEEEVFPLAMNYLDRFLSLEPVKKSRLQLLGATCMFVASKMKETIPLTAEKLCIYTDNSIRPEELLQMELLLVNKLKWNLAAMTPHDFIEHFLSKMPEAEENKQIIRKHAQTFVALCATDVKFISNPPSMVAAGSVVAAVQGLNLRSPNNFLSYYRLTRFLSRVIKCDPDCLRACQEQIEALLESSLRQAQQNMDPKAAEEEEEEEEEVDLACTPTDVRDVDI
Sequence of PLK2 (h) (Q9NYY3 whole entry): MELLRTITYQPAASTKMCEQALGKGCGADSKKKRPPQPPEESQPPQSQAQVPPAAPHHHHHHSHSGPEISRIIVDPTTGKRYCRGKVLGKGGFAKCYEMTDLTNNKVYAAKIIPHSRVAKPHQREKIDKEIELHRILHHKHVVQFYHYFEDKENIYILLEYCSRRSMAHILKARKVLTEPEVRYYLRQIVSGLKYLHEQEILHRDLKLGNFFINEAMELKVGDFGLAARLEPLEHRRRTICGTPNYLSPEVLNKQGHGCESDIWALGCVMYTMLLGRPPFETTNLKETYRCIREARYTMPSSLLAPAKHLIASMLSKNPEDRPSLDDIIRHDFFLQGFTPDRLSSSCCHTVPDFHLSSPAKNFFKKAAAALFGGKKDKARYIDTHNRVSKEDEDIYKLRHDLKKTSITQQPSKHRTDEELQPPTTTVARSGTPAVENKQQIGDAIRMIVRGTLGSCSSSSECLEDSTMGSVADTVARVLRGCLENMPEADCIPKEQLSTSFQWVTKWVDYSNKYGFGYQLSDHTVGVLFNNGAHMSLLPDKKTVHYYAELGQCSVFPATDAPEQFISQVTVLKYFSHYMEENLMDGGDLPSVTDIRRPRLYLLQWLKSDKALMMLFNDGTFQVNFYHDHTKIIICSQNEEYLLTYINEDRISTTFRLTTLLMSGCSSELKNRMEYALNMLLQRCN
Sequence of PLK3 (h) (Q9H4B4 whole entry): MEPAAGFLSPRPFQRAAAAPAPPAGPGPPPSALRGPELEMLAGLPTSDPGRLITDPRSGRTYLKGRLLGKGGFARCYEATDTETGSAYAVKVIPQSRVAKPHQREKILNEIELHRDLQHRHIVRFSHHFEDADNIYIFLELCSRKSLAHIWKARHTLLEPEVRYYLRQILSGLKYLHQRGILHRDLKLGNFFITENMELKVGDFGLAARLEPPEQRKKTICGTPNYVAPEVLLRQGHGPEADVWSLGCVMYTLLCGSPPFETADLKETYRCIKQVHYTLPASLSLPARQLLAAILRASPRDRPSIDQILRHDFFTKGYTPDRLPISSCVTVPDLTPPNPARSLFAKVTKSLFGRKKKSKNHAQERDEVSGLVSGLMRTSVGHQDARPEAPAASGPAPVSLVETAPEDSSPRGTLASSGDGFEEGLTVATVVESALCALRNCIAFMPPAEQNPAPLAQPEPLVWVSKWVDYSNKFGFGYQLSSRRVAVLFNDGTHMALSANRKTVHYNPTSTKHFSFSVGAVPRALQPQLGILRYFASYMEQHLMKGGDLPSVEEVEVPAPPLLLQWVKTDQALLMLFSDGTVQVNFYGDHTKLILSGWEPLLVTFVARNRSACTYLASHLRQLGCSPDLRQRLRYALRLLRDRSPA
Sequence of GSK3β (h) (P49841 whole entry): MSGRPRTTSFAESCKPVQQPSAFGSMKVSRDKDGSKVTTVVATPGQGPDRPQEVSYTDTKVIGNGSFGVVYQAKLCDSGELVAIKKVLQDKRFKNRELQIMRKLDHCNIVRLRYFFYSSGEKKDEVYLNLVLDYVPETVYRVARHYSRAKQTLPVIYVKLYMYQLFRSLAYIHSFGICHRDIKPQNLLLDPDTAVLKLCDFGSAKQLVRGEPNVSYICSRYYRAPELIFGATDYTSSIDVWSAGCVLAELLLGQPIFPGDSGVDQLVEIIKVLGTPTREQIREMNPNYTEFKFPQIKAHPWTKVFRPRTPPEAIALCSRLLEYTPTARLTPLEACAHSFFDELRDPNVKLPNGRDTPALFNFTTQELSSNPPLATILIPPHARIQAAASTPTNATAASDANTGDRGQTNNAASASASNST

IC50 (GSK3β (h)) | IC50 (CDK4/CyclinD1 (h)) | IC50 (PLK1 T210D (h)) | IC50 (PLK2 (h)) | IC50 (PLK3 (h)) | IC50 (HCT-116) | IC50 (H1299) | IC50 (U87-MG) | IC50 (A2780) | IC50 (MDA-MB-231) | SMILES
0.0676 µM | > 10 µM | > 10 µM | > 10 µM | > 10 µM | 2.19 µM | 2.45 µM | > 10 µM | 4.17 µM | 8.13 µM | O=C1NCc2cccc(c2)-c2ccnc(n2)Nc2ccc(C(=O)N3CCOCC3)c(c2)CN2CCC[C@@H]12 [Compound 26]
0.141 µM | 1.78 µM | > 10 µM | > 10 µM | > 10 µM | 0.891 µM | 2.95 µM | 5.37 µM | 0.661 µM | 3.8 µM | O=C1NCc2cccc(c2)-c2ccnc(n2)Nc2ccc(N3CCOCC3)c(c2)CN2C[C@@H](O)C[C@@H]12 [Compound 27]
0.186 µM | 3.31 µM | > 10 µM | > 10 µM | > 10 µM | 5.13 µM | > 10 µM | > 10 µM | > 10 µM | > 10 µM | O=C1NCc2cccc(c2)-c2ccnc(n2)Nc2cc(cc(C(=O)N3CCOCC3)c2)CN2CCC[C@@H]12 [Compound 32]
0.525 µM | 8.71 µM | > 10 µM | > 10 µM | > 10 µM | 5.89 µM | 6.17 µM | 8.71 µM | > 10 µM | > 10 µM | CN1CCN(C(=O)c2cc3cc(c2)Nc2nccc(n2)-c2cccc(c2)CNC(=O)[C@@H]2CCCN2C3)CC1 [Compound 34]
0.204 µM | 1.35 µM | > 10 µM | > 10 µM | > 10 µM | 1.32 µM | > 10 µM | 1.45 µM | 3.39 µM | > 10 µM | CN(C)C(=O)c1cc2cc(c1)Nc1nccc(n1)-c1cccc(c1)CNC(=O)[C@@H]1CCCN1C2 [Compound 35]
0.676 µM | > 10 µM | > 10 µM | > 10 µM | > 10 µM | > 10 µM | > 10 µM | > 10 µM | > 10 µM | > 10 µM | O=C(NC1CCOCC1)c1cc2cc(c1)Nc1nccc(n1)-c1cccc(c1)CNC(=O)[C@@H]1CCCN1C2 [Compound 37]
0.186 µM | 3.47 µM | > 10 µM | > 10 µM | > 3.02 µM | 1.23 µM | > 10 µM | 1 µM | 2.69 µM | 6.31 µM | CN1CCC(NC(=O)c2cc3cc(c2)Nc2nccc(n2)-c2cccc(c2)CNC(=O)[C@@H]2CCCN2C3)CC1 [Compound 38]
0.363 µM | 1.12 µM | > 10 µM | > 10 µM | > 10 µM | 1.23 µM | > 10 µM | 1.07 µM | 2.09 µM | 6.76 µM | CN(C)CCNC(=O)c1cc2cc(c1)Nc1nccc(n1)-c1cccc(c1)CNC(=O)[C@@H]1CCCN1C2 [Compound 39]
0.186 µM | 0.427 µM | > 10 µM | > 10 µM | > 10 µM | 1.78 µM | > 10 µM | > 10 µM | 2.51 µM | 5.62 µM | O=C1NCc2cc(ccc2N2CCOCC2)Nc2nccc(n2)-c2cccc(c2)CCN2CCC[C@@H]12 [Compound 43]
0.166 µM | 3.63 µM | > 10 µM | > 10 µM | > 10 µM | 1.82 µM | > 10 µM | 1.91 µM | 6.03 µM | > 10 µM | COCCNC(=O)c1cc2cc(c1)Nc1nccc(n1)-c1cccc(c1)CNC(=O)[C@@H]1CCCN1C2 [Compound 44]

The remaining lines, values behind:

SMILES | IC50 (GSK3β (h)) | IC50 (CDK4/CyclinD1 (h)) | IC50 (PLK1 T210D (h)) | IC50 (PLK2 (h)) | IC50 (PLK3 (h)) | IC50 (HCT-116) | IC50 (H1299) | IC50 (U87-MG) | IC50 (A2780) | IC50 (MDA-MB-231)
COc1ccc2cc1CN[C@@H](CO)C(=O)N(C)CCCN(C)c1ccc(cn1)-c1ccnc(n1)N2 [Compound 11] | 2.09 µM | > 10 µM | > 10 µM | > 10 µM | > 10 µM | > 10 µM | > 10 µM | > 10 µM | > 10 µM | > 10 µM
O=C1NCc2ccc(cc2)-c2ccnc(n2)Nc2ccc(N3CCOCC3)c(c2)CN2CCC1CC2 [Compound 12] | ~10.5 µM | 1.58 µM | > 10 µM | > 10 µM | > 10 µM | 3.8 µM | 1.58 µM | 0.955 µM | 1.74 µM | 9.33 µM
O=C1NCc2cc(ccc2N2CCOCC2)Nc2nccc(n2)-c2cccc(c2)CN2CCC[C@@H]12 [Compound 15] | 0.372 µM | 4.47 µM | > 10 µM | > 10 µM | > 10 µM | 8.32 µM | > 10 µM | 7.94 µM | 7.08 µM | > 10 µM
COc1cc2cc(c1OC)CN1CCC[C@H]1C(=O)N(C)CCN(C)c1cc(ccn1)-c1ccnc(n1)N2 [Compound 17] | 0.851 µM | > 10 µM | > 10 µM | > 10 µM | > 10 µM | > 10 µM | > 10 µM | > 10 µM | > 10 µM | > 10 µM
O=C1NCc2cccc(c2)-c2ccnc(n2)Nc2ccc(N3CCOCC3)c(c2)CN[C@H]1Cc1ccccc1 [Compound 18] | 0.389 µM | > 10 µM | > 10 µM | > 10 µM | > 10 µM | 6.76 µM | > 10 µM | 6.76 µM | 9.33 µM | > 10 µM
O=C1CN2CCN(CC2)Cc2cc(ccc2N2CCOCC2)Nc2nccc(n2)-c2cccc(c2)CN1 [Compound 20] | 6.03 µM | > 10 µM | > 10 µM | > 10 µM | > 10 µM | > 10 µM | > 10 µM | > 10 µM | > 10 µM | > 3.02 µM
COc1cc2cc(c1OC)CN1CCC[C@H]1C(=O)NCc1cccc(c1)-c1ccnc(n1)N2 [Compound 23] | 0.195 µM | > 10 µM | > 10 µM | > 10 µM | > 10 µM | > 10 µM | > 10 µM | > 10 µM | > 10 µM | > 10 µM
CN1CCN(C(=O)c2ccc3cc2CN2CCC[C@H]2C(=O)NCc2cccc(c2)-c2ccnc(n2)N3)CC1 [Compound 25] | 0.0813 µM | > 10 µM | > 10 µM | > 10 µM | > 10 µM | 3.72 µM | 3.31 µM | > 10 µM | 4.47 µM | > 10 µM
